Assay results taken from patent publication US20240360179A1, “STAPLED PEPTIDES AND METHODS THEREOF” (FOG PHARMACEUTICALS, INC., priority 2021, published 2024).
Where two headings read alike, the source gives them in different places.

Legend:
[1] = target: T1, beta-catenin/TCF4 interaction (Homo sapiens, UniProt P35222); type: cell-based; settings: read-out: NanoBRET Abs IC50
T1 construct: host or cells: HEK293
T1 sequence (P35222 1-781): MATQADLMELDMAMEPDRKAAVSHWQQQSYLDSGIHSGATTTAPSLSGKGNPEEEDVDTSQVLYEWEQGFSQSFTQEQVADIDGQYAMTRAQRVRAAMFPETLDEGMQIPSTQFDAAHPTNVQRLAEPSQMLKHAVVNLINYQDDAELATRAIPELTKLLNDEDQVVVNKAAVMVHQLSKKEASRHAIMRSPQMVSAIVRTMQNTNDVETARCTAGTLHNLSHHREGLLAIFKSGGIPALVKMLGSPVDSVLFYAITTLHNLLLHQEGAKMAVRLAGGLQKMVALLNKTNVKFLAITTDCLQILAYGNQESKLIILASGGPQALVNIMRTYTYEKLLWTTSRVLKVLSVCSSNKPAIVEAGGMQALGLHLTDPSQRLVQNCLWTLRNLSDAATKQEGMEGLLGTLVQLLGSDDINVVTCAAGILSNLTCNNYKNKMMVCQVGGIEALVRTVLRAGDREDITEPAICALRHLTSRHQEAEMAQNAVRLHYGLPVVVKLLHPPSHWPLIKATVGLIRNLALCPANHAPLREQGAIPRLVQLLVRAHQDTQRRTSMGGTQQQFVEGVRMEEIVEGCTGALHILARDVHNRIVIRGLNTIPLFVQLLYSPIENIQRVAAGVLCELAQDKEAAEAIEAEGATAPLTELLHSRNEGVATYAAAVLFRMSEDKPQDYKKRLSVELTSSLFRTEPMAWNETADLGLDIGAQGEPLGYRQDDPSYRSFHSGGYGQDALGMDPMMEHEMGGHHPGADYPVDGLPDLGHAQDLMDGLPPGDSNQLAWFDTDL

[2] = tested on: HAP1 CTNNB1 knockout cells; assay: qPCR in HAP1 beta-catenin KO cells; type: cell-based
[3] = tested on: beta-catenin driven transcription in HAP1 WT cells; assay: qPCR of beta-catenin driven transcription in HAP1 WT cells (CHIR treated); type: cell-based; settings: 24-hour treatment
[4] = target: T2, TCF/LEF luciferase reporter in DLD1 cells (Homo sapiens, UniProt P35222); assay: TCF reporter assay in DLD1 cells (4% or 20% FBS); type: cell-based
T2 sequence (P35222 2-781): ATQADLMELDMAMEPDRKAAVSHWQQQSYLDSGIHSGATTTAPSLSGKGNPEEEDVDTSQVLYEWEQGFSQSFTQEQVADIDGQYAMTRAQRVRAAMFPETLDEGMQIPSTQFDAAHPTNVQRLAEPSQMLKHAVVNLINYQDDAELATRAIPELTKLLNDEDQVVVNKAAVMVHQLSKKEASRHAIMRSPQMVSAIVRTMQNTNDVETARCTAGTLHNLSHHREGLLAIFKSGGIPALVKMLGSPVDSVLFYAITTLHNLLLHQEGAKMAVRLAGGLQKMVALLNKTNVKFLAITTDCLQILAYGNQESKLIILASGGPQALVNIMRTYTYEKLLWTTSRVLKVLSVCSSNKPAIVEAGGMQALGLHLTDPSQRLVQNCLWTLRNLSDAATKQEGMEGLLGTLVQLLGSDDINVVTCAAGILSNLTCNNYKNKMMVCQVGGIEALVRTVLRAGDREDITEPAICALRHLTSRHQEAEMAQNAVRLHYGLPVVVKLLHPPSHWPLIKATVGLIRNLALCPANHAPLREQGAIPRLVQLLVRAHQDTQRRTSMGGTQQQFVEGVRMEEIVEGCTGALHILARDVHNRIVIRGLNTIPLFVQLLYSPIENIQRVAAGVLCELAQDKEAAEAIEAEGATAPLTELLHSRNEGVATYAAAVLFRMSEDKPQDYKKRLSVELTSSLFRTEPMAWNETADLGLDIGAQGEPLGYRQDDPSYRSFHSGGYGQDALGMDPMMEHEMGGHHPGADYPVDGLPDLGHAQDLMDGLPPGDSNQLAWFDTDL

[5] = target: T3, full-length B-Catenin (Uniprot ID P35222) (Homo sapiens, UniProt P35222); type: binding
T3 construct: 10 nM full-length B-Catenin (Uniprot ID P35222)
T3 sequence (P35222 1-781): T1 sequence (P35222 1-781)

COLO320DM cells = assay: COLO320DM proliferation assay (CellTiter-Glo); type: cell-based, human; settings: read-out: COLO320DM Proliferation Abs IC50
Outline: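 COLO320DM cells, 250 cells/well in RPMI-1640 with 4% FBS, attached 18-22 h, then exposed 96 h at 37 °C, 5% CO2 to 7-point 1/2 dilutions from 20 uM to 313 nM. Viability by CellTiter-Glo luminescence; IC50 derived from the dose curve.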

[6] = read-out: DLD1 4% Abs IC50, DLD1 TCF reporter, 4% FBS
[7] = read-out: DLD1 4% Abs IC50, DLD1 TCF reporter, 4% FBS, absolute IC50
[8] = read-out: beta-catenin TCF4 competition FP assay IC50
[9] = read-out: beta-catenin TCF4 DLD1 cell reporter assay IC50

Work on “5hexenyl-MePro-Asp-AllylGly-R5-Asp-3COOHF-Aib-Ala-Phe-Lys*3-PyrS2-3Thi-BztA-GlnR*3-Ala-NH2 [I-430]” yielded an IC50 [1] of over 10 µM.
For `Cc1c[nH]c(-c2cnc(NCCNc3ccc(C#N)cn3)nc2-c2ccc(Cl)cc2Cl)n1` [CHIR, CHIR99021, reference compound], the “expression of AXIN2, SP5, or RNF43” value [2] was “neither CHIR nor peptide A and I-66 affected” and the beta-catenin protein levels [3] was “more than two-fold”.
“Ac-PL3-Asn-Npg-B5-Asp-3COOHF-Aib-Ala-Phe-Lys*3-PyrS2-2F3MeF-BztA-GlnR*3-Leu-Ser-NH2 [I-144]” gave an IC50 [4, 6] of 1 to 5 µM.
“Ac-PL3-Asn-Npg-B5-Asp-3COOHF-Ala-Ala-Phe-Lys*3-PyrS2-2F3MeF-BztA-GlnR*3-Leu-Ser-NH2 [I-142]” showed an IC50 [4, 6] of over 5 µM.
Work on “Ac-PL3-Asp-Cha-B5-Asp-3COOHF-Ala-Ala-Phe-Lys*3-PyrS2-2F3MeF-BztA-GlnR*3-Leu-NH2 [I-106]” yielded an IC50 [4, 6] of at most 1 µM.
Work on “Ac-PL3-Asp-Npg-B5-Asp-3COOHF-Aib-Ala-Phe-Lys*3-PyrS2-2F3MeF-BztA-GlnR*3-Ala-NH2 [I-69]” yielded an IC50 ([5]; read-out: beta-Catenin FP IC50) of under 0.05 µM, an IC50 [4, 6] of at most 1 µM and an IC50 (COLO320DM cells) of at most 10 µM.
“Ac-PL3-Asp-Npg-B5-Asp-3COOHF-Aib-Ala-Phe-Lys*3-PyrS2-2F3MeF-BztA-GlnR*3-Leu-Ser-NH2 [I-138]” gave an IC50 [4, 6] of at most 1 µM and an IC50 (COLO320DM cells) of at most 10 µM.
Molecule “Ac-PL3-Asp-Npg-B5-Asp-3COOHF-Aib-Ala-Phe-Lys*3-PyrS2-3Thi-BztA-GlnR*3-Glu-Ala-NH2 [I-342]” has an IC50 [4, 7] of at most 1 µM.
“Ac-PL3-Asp-Npg-B5-Asp-3COOHF-Aib-Ala-Phe-TriAzLys*3-PyrS2-3Thi-BztA-sCH2S*3-Ala-NH2 [I-262]” gave an IC50 [4, 6] of at most 1 µM and an IC50 (COLO320DM cells) of at most 10 µM.
Molecule “Ac-PL3-Asp-Npg-B5-Asp-3COOHF-Aib-Ala-Phe-[2_6-naph]Cys-PyrS2-3Thi-BztA-Cys-Ala-NH2 [I-566]” has an IC50 [5, 8] of 0.058 µM and an IC50 [4, 9] of over 20 µM.
Molecule “Ac-PL3-Asp-Npg-B5-Asp-3COOHF-Aib-Ala-Phe-[3_3-biph]Cys-PyrS2-3Thi-BztA-Cys-Ala-NH2 [I-567]” has an IC50 [5, 8] of 0.12 µM and an IC50 [4, 9] of over 20 µM.
“Ac-PL3-Asp-Npg-B5-Asp-3COOHF-Aib-Ala-Phe-sAla*3-PyrS2-3Thi-BztA-TriAzLys*3-Ala-NH2 [I-336]” was tested, and the IC50 [4, 7] was 1 to 5 µM.
“Ac-PL3-Asp-Npg-B5-Asp-3COOHF-Ala-Aib-Phe-Lys*3-PyrS2-3Thi-BztA-GlnR*3-Ala-NH2 [I-442]” was tested, and the IC50 [1] was over 10 µM.
“Ac-PL3-Asp-Npg-B5-Asp-3COOHF-Ala-Ala-Phe-Lys*3-PyrS2-3Thi-BztA-GlnR*3-Prool [I-64]” gave an IC50 [4, 6] of 1 to 5 µM and an IC50 (COLO320DM cells) of 10 to 20 µM.
With “Ac-PL3-Asp-Npg-B5-Asp-3COOHF-Ala-Ala-Phe-Lys*3-PyrS2-3Thi-BztA-hGlnR*3-Ala-NH2 [I-183]” the IC50 [4, 6] was 1 to 5 µM.
“Ac-PL3-Asp-Npg-B5-Asp-3COOHF-Ala-Ala-Phe-TriAzLys*3-PyrS2-3Thi-BztA-sAla*3-Ala-NH2 [I-337]” showed an IC50 [4, 7] of at most 1 µM.
“Ac-PL3-Asp-Npg-B5-Asp-3COOHF-Ala-Ala-Phe-iPrLys*3-PyrS2-3Thi-BztA-hGlnR*3-Ala-NH2 [I-187]” gave an IC50 [4, 6] of over 5 µM.
Work on “Ac-PL3-Asp-Npg-B5-Asp-3COOHF-Ala-Ala-Phe-sAla*3-PyrS2-3Thi-BztA-TriAzLys*3-Ala-NH2 [I-338]” yielded an IC50 [4, 7] of at most 1 µM.
Molecule “Ac-PL3-Asp-Npg-B5-Asp-3COOHF-Ala-Ala-Phe-sAla*3-PyrS2-3Thi-BztA-TriAzLys*3-NH2 [I-24]” has an IC50 [4, 6] of 1 to 5 µM.
In the case of “Ac-PL3-Asp-Npg-B5-Asp-3COOHF-Cbg-Ala-Phe-Lys*3-PyrS2-2F3MeF-BztA-GlnR*3-Leu-Ser-NH2 [I-140]”, the IC50 [4, 6] is reported as at most 1 µM.
For “Ac-PL3-Asp-Npg-B5-Asp-3COOHF-Cpg-Ala-Phe-Lys*3-PyrS2-2F3MeF-BztA-GlnR*3-Leu-Ser-NH2 [I-139]”, the IC50 [4, 6] was at most 1 µM.
Molecule “Ac-PL3-Asp-Npg-B5-Asp-3COOHF-CyLeu-Ala-Phe-Lys*3-PyrS2-2F3MeF-BztA-GlnR*3-Leu-Ser-NH2 [I-141]” has an IC50 [4, 6] of at most 1 µM.
Work on “Ac-PL3-Asp-Npg-B5-Asp-3COOHF-Npg-Ala-Phe-Lys*3-PyrS2-2F3MeF-BztA-GlnR*3-Ala-NH2 [I-99]” yielded an IC50 [4, 6] of at most 1 µM.
For “Ac-PL3-Asp-Npg-B5-Asp-3COOHF-Npg-Ala-Phe-Lys*3-PyrS2-2F3MeF-BztA-GlnR*3-Leu-NH2 [I-109]”, the IC50 [4, 6] was 1 to 5 µM and the IC50 [1] was over 10 µM.
With “Ac-PL3-Asp-Npg-B5-Asp-3COOHF-nLeu-Ala-Phe-Lys*3-PyrS2-3Thi-BztA-GlnR*3-Ala-NH2 [I-70]” the IC50 [4, 6] was at most 1 µM and the IC50 (COLO320DM cells) was at most 10 µM.
“Ac-PL3-Asp-Npg-B5-Asp-TfeGA-Ala-Ala-Phe-Lys*3-PyrS2-2F3MeF-BztA-GlnR*3-Leu-NH2 [I-128]” showed an IC50 [4, 6] of 1 to 5 µM.
With “Ac-PL3-Asp-Npg-B5-Asp-TfeGA-Ala-Ala-Phe-Lys*3-PyrS2-2F3MeF-BztA-GlnR*3-Val-NH2 [I-129]” the IC50 [4, 6] was 1 to 5 µM.
Work on “Ac-PL3-Glu-Npg-B5-Glu-3COOHF-Aib-Ala-Phe-Lys*3-PyrS2-2F3MeF-BztA-GlnR*3-Ala-NH2 [I-291]” yielded an IC50 [4, 6] of 1 to 5 µM.
In the case of “Ac-PL3-aThr-Npg-B5-Asp-3COOHF-Aib-Ala-Phe-Lys*3-PyrS2-3Thi-BztA-GlnR*3-Ala-NH2 [I-163]”, the IC50 [4, 6] is reported as over 5 µM.
